Measured values: patent US12643905B2, “Spiropyrrolidine derived antiviral agents” (priority 2021, dated 2026)

Experiments:
[1] = target: SARS-CoV-2 3CL-protease (Severe acute respiratory syndrome coronavirus 2, UniProt P0DTD1); assay: SARS-CoV-2 3C-like (3CL) protease fluorescence assay (FRET); type: biochemical; settings: recombinant SARS-CoV-2 3CL-protease 10 nM, 30 min preincubation, run in duplicate; read-out: FRET IC50
[2] = system: 229E human corona virus (hCoV); assay: 229E live virus assay (CPE, ATPlite readout in MRC-5 cells); type: cell-based, hCoV-229E; settings: Human coronavirus 229E, MRC5, 144 h, MOI 0.05, 6 days at 34° C., run in duplicate

Structure (SMILES) | IC50 [1] [nM] | EC50 [2] [nM]
CC(C)(C)C[C@H](NC(=O)C(=O)C(C)(C)C)C(=O)N1C[C@]2(C[C@H]1C#N)C(=O)Nc1ccccc12 [Example 180] | > 1000 | 100 to 1000
CC(C)(C)C[C@H](NC(=O)C(=O)Nc1ccc2ccccc2c1)C(=O)N1C[C@]2(C[C@H]1C#N)C(=O)Nc1ccccc12 [Example 96] | < 100 | < 100
CC(C)(C)C[C@H](NC(=O)C(=O)Nc1ccccc1F)C(=O)N1C[C@]2(C[C@H]1C#N)C(=O)Nc1ccccc12 [Example 90] | < 100 | < 100
CC(C)(C)C[C@H](NC(=O)C(=O)NC1CCCCC1)C(=O)N1C[C@]2(C[C@H]1C#N)C(=O)Nc1ccccc12 [Example 97] | < 100 | < 100
CCC(C)NC(=O)C(=O)N[C@@H](CC(C)(C)C)C(=O)N1C[C@]2(C[C@H]1C#N)C(=O)Nc1ccccc12 (some centres unmarked) [Example 88] | < 100 | < 100
CC(C)(C)C[C@H](NC(=O)C(=O)Nc1ccccc1)C(=O)N1C[C@]2(C[C@H]1C#N)C(=O)Nc1ccccc12 [Example 104] | – | < 100
CC(C)(C)C[C@H](NC(=O)C(=O)Nc1c(C(F)(F)F)cccc1C(F)(F)F)C(=O)N1C[C@]2(C[C@H]1C#N)C(=O)Nc1ccccc12 [Example 138] | < 100 | < 100
[2H]C([2H])([2H])N(C(=O)C(=O)NCc1ccc(F)cc1F)[C@@H](CC1CC1)C(=O)N1C[C@]2(C[C@H]1C#N)C(=O)Nc1ccccc12 [Example 190] | < 100 | < 100
CC(C)(C)C[C@H](NC(=O)C(=O)NC1(c2ccccc2)CC1)C(=O)N1C[C@]2(C[C@H]1C#N)C(=O)Nc1ccccc12 [Example 118] | < 100 | < 100
CC(C)[C@H](NC(=O)C(=O)N[C@@H](CC(C)(C)C)C(=O)N1C[C@]2(C[C@H]1C#N)C(=O)Nc1ccccc12)c1ccccc1 [Example 116] | < 100 | < 100
CC(C)(C)C[C@H](NC(=O)C(=O)Nc1ccc(F)cc1F)C(=O)N1C[C@]2(C[C@H]1C#N)C(=O)Nc1ccccc12 [Example 94] | < 100 | < 100
CC(C)C[C@H]1C(=O)N2C[C@]3(C[C@H]2C#N)C(=O)Nc2ccc(cc23)CCCCNC(=O)C(=O)N1C [Example 211] | 100 to 1000 | 100 to 1000
CC(C)(C)C[C@H](NC(=O)C(=O)NC(C)(C)C)C(=O)N1C[C@]2(C[C@H]1C#N)C(=O)Nc1ccccc12 [Example 95] | – | < 100
CC(C)(C)C[C@H](NC(=O)C(=O)NCc1ccccc1)C(=O)N1C[C@]2(C[C@H]1C#N)C(=O)Nc1ccccc12 [Example 159] | < 100 | < 100
CC(C)(C)C[C@H](NC(=O)C(=O)Nc1cccc(F)c1)C(=O)N1C[C@]2(C[C@H]1C#N)C(=O)Nc1ccccc12 [Example 89] | < 100 | < 100
CC(C)(C)C[C@@H](C(=O)N1C[C@]2(C[C@H]1C#N)C(=O)Nc1ccccc12)N(CC(F)(F)F)C(=O)C(=O)Nc1ccc(F)cc1 [Example 64] | 100 to 1000 | –
[2H]C([2H])([2H])N(C(=O)C(=O)c1ccc(F)cc1)[C@@H](CCCC)C(=O)N1C[C@]2(C[C@H]1C#N)C(=O)Nc1ccccc12 [Example 57] | < 100 | –
CC(C)(C)C[C@H](NC(=O)C(=O)Nc1cccnc1C(F)(F)F)C(=O)N1C[C@]2(C[C@H]1C#N)C(=O)Nc1ccccc12 [Example 162] | < 100 | –
CC(C)(C)C[C@H](NC(=O)C(=O)Nc1ccccc1C(F)(F)F)C(=O)N1C[C@]2(C[C@H]1C#N)C(=O)Nc1ccccc12 [Example 195] | < 100 | –
CC(C)(C)C[C@H](NC(=O)C(=O)Nc1ccc2[nH]ccc2c1)C(=O)N1C[C@]2(C[C@H]1C#N)C(=O)Nc1ccccc12 [Example 123] | < 100 | –
Cc1cccc(C)c1NC(=O)C(=O)N[C@@H](CC(C)C)C(=O)N1C[C@]2(C[C@H]1C#N)C(=O)Nc1ccccc12 [Example 201] | < 100 | –
[2H]C([2H])([2H])N(C(=O)C(=O)NCC(C)C)[C@@H](CCCC)C(=O)N1C[C@]2(C[C@H]1C#N)C(=O)Nc1ccccc12 [Example 56] | < 100 | –
CCCC[C@H](NC(=O)C(=O)Nc1c(C)cccc1C)C(=O)N1C[C@]2(C[C@H]1C#N)C(=O)Nc1ccccc12 [Example 202] | < 100 | –
CC(C)(C)C[C@H](NC(=O)C(=O)Nc1ncccc1C(F)(F)F)C(=O)N1C[C@]2(C[C@H]1C#N)C(=O)Nc1ccccc12 [Example 125] | < 100 | –
CC(C)(C)C[C@H](NC(=O)C(=O)Nc1ccc2cccnc2c1)C(=O)N1C[C@]2(C[C@H]1C#N)C(=O)Nc1ccccc12 [Example 113] | < 100 | –
CC(C)(C)C[C@H](NC(=O)C(=O)NC(C)(C)c1ccccn1)C(=O)N1C[C@]2(C[C@H]1C#N)C(=O)Nc1ccccc12 [Example 106] | < 100 | –
CC(C)(C)C[C@H](NC(=O)C(=O)Nc1ccc2cc[nH]c2c1)C(=O)N1C[C@]2(C[C@H]1C#N)C(=O)Nc1ccccc12 [Example 124] | < 100 | –
Cc1cccc(Cl)c1NC(=O)C(=O)N[C@@H](CC(C)(C)C)C(=O)N1C[C@]2(C[C@H]1C#N)C(=O)Nc1ccccc12 [Example 147] | < 100 | –
